# US10550105B2 (Ribon Therapeutics Inc., priority 2018, dated 2020)
# Biological target: PARP7 (Homo sapiens (Human), UniProt Q7Z3E1)
# Experiment: Enzymatic assay for inhibition of PARP7: TR-FRET displacement of biotinylated Probe A from the TIPARP active site
# Assay type: binding
# Conditions: Table A-1
# Protocol: 20 nL of a dose response curve of each test compound was spotted in black 384-well polystyrene proxiplates (Perkin Elmer) using a Mosquito (TTP Labtech). […] Reactions were incubated at 25° C. for an additional 30 min, then read on an Envision platereader equipped with a LANCE/DELFIA top mirror (Perkin Elmer) using excitation of 320 nm and emission of 615 nm and […] with a 90 μs delay. The ratio of the 665/615 nm emission were calculated for each well to determine the amount of complex of TIPARP and Probe A in each well. […] The Hill Coefficient is normally allowed to float but may also be fixed at 1 in a 3-parameter fit. Y is the % inhibition and x is the compound concentration.
# Chain of PARP7 (Q7Z3E1 whole entry): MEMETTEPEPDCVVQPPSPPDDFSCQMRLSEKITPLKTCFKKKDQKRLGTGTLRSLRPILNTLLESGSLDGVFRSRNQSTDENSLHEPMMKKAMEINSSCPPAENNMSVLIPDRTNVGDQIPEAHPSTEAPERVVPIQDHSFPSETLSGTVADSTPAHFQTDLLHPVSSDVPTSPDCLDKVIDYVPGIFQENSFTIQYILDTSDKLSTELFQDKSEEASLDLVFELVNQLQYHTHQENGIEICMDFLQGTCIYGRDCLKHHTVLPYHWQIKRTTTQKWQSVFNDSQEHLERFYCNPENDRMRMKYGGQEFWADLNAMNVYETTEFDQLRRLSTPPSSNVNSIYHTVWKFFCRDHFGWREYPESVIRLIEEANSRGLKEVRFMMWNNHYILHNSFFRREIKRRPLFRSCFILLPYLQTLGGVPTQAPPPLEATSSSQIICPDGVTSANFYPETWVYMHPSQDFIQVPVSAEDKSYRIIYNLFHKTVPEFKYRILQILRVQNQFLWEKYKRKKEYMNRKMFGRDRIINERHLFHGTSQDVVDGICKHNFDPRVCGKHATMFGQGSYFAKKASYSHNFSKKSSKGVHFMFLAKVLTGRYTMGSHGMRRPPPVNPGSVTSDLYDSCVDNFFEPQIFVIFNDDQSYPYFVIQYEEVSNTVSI
row,IC50,SMILES
1,≥ 1000 nM,"N#Cc1ccc(N2CCN(C(=O)C[C@H]3CCC[C@H](COc4cn[nH]c(=O)c4C(F)(F)F)O3)CC2)nc1 (single isomer, unassigned) [Example 583 Isomer B]"
2,< 100 nM,"O=c1[nH]ncc(N2Cc3cccc(OCC4CCCO4)c3C2)c1C(F)(F)F (centres unmarked) [Example 201, 5-(4-((Tetrahydrofuran-2-yl)methoxy)isoindolin-2-yl)-4-(trifluoromethyl)pyridazin-3(2H)-one]"
3,< 100 nM,"CC1CN(c2ccc(C#N)cn2)CCN1C(=O)c1cccc(OC[C@@H]2CCCN2c2cn[nH]c(=O)c2C(F)(F)F)c1 (stereo partly drawn) [Example 450, 6-(3-methyl-4-(3-(((S)-1-(6-Oxo-5-(trifluoromethyl)-1,6-dihydropyridazin-4-yl)pyrrolidin-2-yl)methoxy)benzoyl)piperazin-1-yl)nicotinonitrile]"
4,≥ 1000 nM,"O=C(C[C@@H]1CC[C@@H](COc2cn[nH]c(=O)c2Cl)O1)N1CCN(c2ncc(C(F)(F)F)cn2)CC1 (single isomer, unassigned) [Example 575 Isomer A]"
5,< 100 nM,"COC[C@@H](COCCC(=O)N1CCN(c2ncc(C(F)(F)F)cn2)CC1)Nc1cn[nH]c(=O)c1C(F)(F)F [Example 559, 5-[[(2S)-1-Methoxy-3-(3-oxo-3-[4-[5-(trifluoromethyl)pyrimidin-2-yl]piperazin-1-yl]propoxy)propan-2-yl]amino]-4-(trifluoromethyl)-2,3-dihydropyridazin-3-one]"
6,100 to 1000 nM,"O=c1[nH]ncc(N2Cc3cc(OC4CCNCC4)cnc3C2)c1C(F)(F)F [Example 7, 5-[3-(piperidin-4-yloxy)-5H,6H,7H-pyrrolo[3,4-b]pyridin-6-yl]-4-(trifluoromethyl)-2,3-dihydropyridazin-3-one]"
7,100 to 1000 nM,"N#Cc1ccc(N2CCN(C(=O)CCCOC[C@H]3c4ccccc4CN3c3cn[nH]c(=O)c3C(F)(F)F)CC2)nc1 [Example 409, (R)-6-(4-(4-((2-(6-Oxo-5-(trifluoromethyl)-1,6-dihydropyridazin-4-yl)isoindolin-1-yl)methoxy)butanoyl)piperazin-1-yl)nicotinonitrile]"
8,< 100 nM,"O=c1[nH]ncc(N2Cc3ccc(F)cc3C2)c1Cl [Example 59, 4-Chloro-5-(5-fluoro-2,3-dihydro-1H-isoindol-2-yl)-2,3-dihydropyridazin-3-one]"
9,< 100 nM,"N#Cc1cnc(N2CCN(C(=O)CCOC[C@@H]3CCCN3c3cn[nH]c(=O)c3C(F)(F)F)CC2)nc1 [Example 461, (S)-2-(4-(3-((1-(6-Oxo-5-(trifluoromethyl)-1,6-dihydropyridazin-4-yl)pyrrolidin-2-yl)methoxy)propanoyl)piperazin-1-yl)pyrimidine-5-carbonitrile]"
10,< 100 nM,"CC[C@@H](COCCC(=O)N1CCN(c2ncc(Cl)cn2)CC1)Nc1cn[nH]c(=O)c1C(F)(F)F [Example 588, 5-[[(2S)-1-[3-[4-(5-Chloropyrimidin-2-yl)piperazin-1-yl]-3-oxopropoxy]butan-2-yl]amino]-4-(trifluoromethyl)-2,3-dihydropyridazin-3-one]"
11,100 to 1000 nM,"N#Cc1ccc(N2CCN(C(=O)C[C@H]3CC[C@H](COc4cn[nH]c(=O)c4Cl)O3)CC2)nc1 (single isomer, unassigned) [Example 582 Isomer B]"
12,< 100 nM,"CC[C@@H](COCCC(=O)N1CCN(c2ccc(Cl)cn2)CC1)Nc1cn[nH]c(=O)c1C(F)(F)F [Example 586, 5-[[(2S)-1-[3-[4-(5-Chloropyridin-2-yl)piperazin-1-yl]-3-oxopropoxy]butan-2-yl]amino]-4-(trifluoromethyl)-2,3-dihydropyridazin-3-one]"
13,100 to 1000 nM,"C[C@@H](COCCC(=O)N1CCN(c2ncc(C(F)(F)F)s2)CC1)Oc1cn[nH]c(=O)c1Cl [Example 729, (S)-4-Chloro-5-((1-(3-oxo-3-(4-(5-(trifluoromethyl)thiazol-2-yl)piperazin-1-yl)propoxy)propan-2-yl)oxy)pyridazin-3(2H)-one]"
14,100 to 1000 nM,"O=c1[nH]ncc(N2Cc3cccc(OC4CCN(C(c5ccccc5)c5ccccc5)CC4)c3C2)c1C(F)(F)F [Example 27, 5-(4-[[1-(diphenylmethyl)piperidin-4-yl]oxy]-2,3-dihydro-1H-isoindol-2-yl)-4-(trifluoromethyl)-2,3-dihydropyridazin-3-one]"
15,100 to 1000 nM,"C[C@@H](COc1cn[nH]c(=O)c1C(F)(F)F)OCCC(=O)N1CCN(c2ccc(Cl)cn2)CC1 (single isomer, unassigned) [Example 539 Isomer B]"
16,≥ 1000 nM,"COC[C@H](COCCC(=O)N1CCN(c2ccc(C#N)cn2)CC1)Nc1cn[nH]c(=O)c1C(F)(F)F (single isomer, unassigned) [Example 518A]"
17,< 100 nM,"N#Cc1ccc(N2CCN(C(=O)c3cc(OC[C@@H]4CCCN4c4cn[nH]c(=O)c4C(F)(F)F)ccn3)CC2)nc1 [Example 73, 6-[4-[(4-[[(2S)-1-[6-oxo-5-(trifluoromethyl)-1,6-dihydropyridazin-4-yl]pyrrolidin-2-yl]methoxy]pyridin-2-yl)carbonyl]piperazin-1-yl]pyridine-3-carbonitrile]"

row,IC50,SMILES
1,< 100 nM,"O=C(CCNC[C@@H]1c2ccccc2CN1c1cn[nH]c(=O)c1C(F)(F)F)N1CCN(c2ccc(C(F)(F)F)cn2)CC1 [Example 629, (S)-5-(1-(((3-Oxo-3-(4-(5-(trifluoromethyl)pyridin-2-yl)piperazin-1-yl)propyl)amino)methyl)isoindolin-2-yl)-4-(trifluoromethyl)pyridazin-3(2H)-one]"
2,100 to 1000 nM,"O=c1[nH]ncc(N2Cc3cccc(F)c3C2)c1Cl [Example 60, 4-Chloro-5-(4-fluoro-2,3-dihydro-1H-isoindol-2-yl)-2,3-dihydropyridazin-3-one]"
3,< 100 nM,"N#Cc1ccc(N2CCN(C(=O)CCO[C@H]3CCC[C@@H]3Oc3cn[nH]c(=O)c3C(F)(F)F)CC2)nc1 (single isomer, unassigned) [Example 572 Isomer A]"
4,≥ 1000 nM,"CC(=O)N1CCN(C(=O)CCOC[C@H]2c3ccccc3CN2c2cn[nH]c(=O)c2C(F)(F)F)CC1 [Example 420, (R)-5-(1-((3-(4-Acetylpiperazin-1-yl)-3-oxopropoxy)methyl)isoindolin-2-yl)-4-(trifluoromethyl)pyridazin-3(2H)-one]"
5,< 100 nM,"Cc1c(OCCOCCC(=O)N2CCN(c3ccc(C#N)cn3)CC2)cn[nH]c1=O [Example 551, 6-[4-(3-[2-[(5-Methyl-6-oxo-1,6-dihydropyridazin-4-yl)oxy]ethoxy]propanoyl)piperazin-1-yl]pyridine-3-carbonitrile]"
6,< 100 nM,N#Cc1ccc(N2CCN(C(=O)c3cccc(OC[C@@H]4CCCN4c4cn[nH]c(=O)c4C(F)(F)F)c3)C(CO)C2)nc1 (some centres unmarked) [Example 33]
7,≥ 1000 nM,"N#Cc1ccc(N2CCN(C(=O)C[C@@H]3CC[C@@H]([C@H]4c5ccccc5CN4c4cn[nH]c(=O)c4C(F)(F)F)O3)CC2)nc1 (single isomer, unassigned) [Example 612 Isomer D]"
8,100 to 1000 nM,"O=C(C[C@H]1CC[C@@H](COc2cn[nH]c(=O)c2Cl)O1)N1CCN(c2ncc(C(F)(F)F)cn2)CC1 [Example 575 Isomer C, 4-Chloro-5-(((2S,5R)-5-(2-oxo-2-(4-(5-(trifluoromethyl)pyrimidin-2-yl)piperazin-1-yl)ethyl)-tetrahydrofuran-2-yl)methoxy)pyridazin-3(2H)-one]"
9,< 100 nM,"COCC1C[C@@H](COCCC(=O)N2CCN(c3ccc(C#N)cn3)CC2)N(c2cn[nH]c(=O)c2C(F)(F)F)C1 (stereo partly drawn) [Example 139, 6-[4-(3-[[(2S)-4-(methoxymethyl)-1-[6-oxo-5-(trifluoromethyl)-1,6-dihydropyridazin-4-yl]pyrrolidin-2-yl]methoxy]propanoyl)piperazin-1-yl]pyridine-3-carbonitrile]"
10,< 100 nM,"N#Cc1ccc(N2CCN(C(=O)CCO[C@H](CO)COc3cn[nH]c(=O)c3C(F)(F)F)CC2)nc1 (single isomer, unassigned) [Example 573 Isomer D]"
11,< 100 nM,"O=c1[nH]ncc(N2Cc3cccc(OCC4CCOC4)c3C2)c1C(F)(F)F (centres unmarked) [Example 200, 5-(4-((Tetrahydrofuran-3-yl)methoxy)isoindolin-2-yl)-4-(trifluoromethyl)pyridazin-3(2H)-one]"
12,≥ 1000 nM,"CCc1c(N2Cc3cccc(OC4CCNCC4)c3C2)cn[nH]c1=O [Example 272, 4-Ethyl-5-(4-(piperidin-4-yloxy)isoindolin-2-yl)pyridazin-3(2H)-one]"
13,100 to 1000 nM,"N#Cc1ccc(N2CCN(C(=O)C[C@@H]3CC[C@@H](COc4cn[nH]c(=O)c4C(F)(F)F)O3)CC2)nc1 (single isomer, unassigned) [Example 580 Isomer A]"
14,< 100 nM,"NCCOc1cccc2c1CN(c1cn[nH]c(=O)c1C(F)(F)F)C2 [Example 209, 5-(4-(2-Aminoethoxy)isoindolin-2-yl)-4-(trifluoromethyl)pyridazin-3(2H)-one]"
15,< 100 nM,"O=C(CCOC[C@H](CO)Nc1cn[nH]c(=O)c1C(F)(F)F)N1CCN(c2ccc(Cl)cn2)CC1 [Example 633, (S)-5-((1-(3-(4-(5-Chloropyridin-2-yl)piperazin-1-yl)-3-oxopropoxy)-3-hydroxypropan-2-yl)amino)-4-(trifluoromethyl)pyridazin-3(2H)-one]"
16,< 100 nM,"CC[C@@H](COCCC(=O)N1CCN(c2ncc(Cl)cn2)CC1)Oc1cn[nH]c(=O)c1C(F)(F)F (single isomer, unassigned) [Example 591 Isomer A]"

row,SMILES,IC50
1,"O=C(CCOC[C@@H]1CCCN1c1cn[nH]c(=O)c1C(F)(F)F)NC1CCC(Nc2ccccn2)CC1 (single isomer, unassigned; isomer a) [Example 81 Isomer A]",100 to 1000 nM
2,"CC[C@@H](COc1cn[nH]c(=O)c1C(F)(F)F)OCCC(=O)N1CCN(c2ncc(Cl)cn2)CC1 [Example 591 Isomer B, 5-[(2S)-2-[3-[4-(5-Chloropyrimidin-2-yl)piperazin-1-yl]-3-oxopropoxy]butoxy]-4-(trifluoromethyl)-2,3-dihydropyridazin-3-one]",< 100 nM
